Results on three compounds are retold here after patent publication US5981530A, “Piperazine derivative” (Senju Pharmaceutical Co., Ltd., priority 1995, dated 1999).

Structures can show the parent of a compound that is named as a salt.

For this test, the system named is rat palpebral PCA reaction. As to the kind of experiment: Passive cutaneous anaphylactic (PCA) reaction of the rat palpebra. The format is in vivo, rat (male Wistar). The conditions noted are these: 100 mg/5 ml/kg oral, 60 min prior to induction of PCA; for Degree of Inhibition (%): vs negative control. As to the method:
Effect of the compound of the invention on the passive cutaneous anaphylactic (PCA) reaction of the rat palpebra
The effect of the compound of the invention on rat palpebral PCA reaction was investigated.
Male Wistar rats weighing about 120 g were purchased from Japan SLC for the experiment.
Using a microsyringe, 25 μl of antiserum (32-fold dilution) was injected beneath the palpebral conjunctiva of the right eye of rats under pentobarbital anesthesia. Forty-eight (48) hours after injection of antiserum, a mixture of 2% chicken egg albumin and 1% Evans blue, 5 ml/kg, was administered into the tail vein to induce PCA reaction. Thirty (30) minutes after induction, the rat was sacrificed and the stained portion of the palpebral conjunctiva of the right eye was excised. The dye was extracted into 5 ml of formamide, and the amount of the dye was determined at 625 nm.
The test substance, 100 mg/5 ml/kg, was administered orally 60 minutes prior to induction of PCA reaction.
As a negative control, 5 ml/kg of 0.5% carboxymethylcellulose (CMC) was administered orally. As a positive control, 100 mg/5 ml/kg of diphenhydramine hydrochloride, a commercial antihistaminic, was administered orally.

Setting [1] is: Table 1, mean ± SD (n = 5), negative control 0.662 ± 0.112, *1 p < 0.05, *2 p < 0.001.
[2] abbreviates: Table 1, n = 5, *1 p < 0.05, *2 p < 0.001.

For `COc1ccc(OCC(O)CN2CCN(c3ccccc3C(=O)O)CC2)c(C(C)(C)C)c1` (stereo not drawn) [Example 1, 3-[4-(2-Carboxyphenyl)piperazinyl]-1-(2-tert-butyl-4-methoxyphenoxy)propan-2-ol], under setting [1], the “Absorbance (extracted dye, 625 nm)” value worked out at 0.299 ± 0.056. Moreover, the “Degree of Inhibition (%)” value under setting [2] was determined as 54.8%.

`O=C(O)c1ccccc1N1CCN(CC(O)COc2cccc3[nH]ccc23)CC1` (stereo not drawn) [Example 5, 3-[4-(2-Carboxyphenyl)piperazinyl]-1-(1H-indol-4-yloxy)propan-2-ol]: the “Absorbance (extracted dye, 625 nm)” value (Table 2, mean ± SD (n = 6), negative control 0.486 ± 0.093, *1 p < 0.001) was 0.276 ± 0.048. Also, where the note is “Table 2, n = 6, *1 p < 0.001”, the “Degree of Inhibition (%)” value was determined as 43.2%.

`CN(C)CCOC(c1ccccc1)c1ccccc1` [Diphenhydramine HCl, diphenhydramine hydrochloride, reference compound]: the “Absorbance (extracted dye, 625 nm)” value under setting [1] was 0.413 ± 0.126. Moreover, the “Degree of Inhibition (%)” value under setting [2] was found to be 37.6%.
